In US20250057997A1, “CONJUGATES COMPRISING COVALENT BINDERS FOR TARGETING INTRACELLULAR PROTEINS” (RayzeBio, Inc., priority 2021, published 2025):
pKd: −log10 of the molar value.

Molecular target: T1, mutant EGFR (T790M, L858R) (Homo sapiens, UniProt P00533, L858R/T790M)
T1 construct: The EGFR constructs span amino acids R669 to V1011 of the EGFR protein; made in house; host or cells: E. coli derived from BL21 (T7 phage) for most assays; remaining kinases in HEK-293 cells
Assay: In vitro kinase assay (phage/DNA-tagged kinase competition binding, qPCR readout), mutant EGFR
Details: for Binding Affinity ratio of WT/DM: ratio of Kd EGFR (WT) to Kd EGFR (L858R, T790M) double mutant
Method: For most assays, kinase-tagged T7 phage strains were prepared in an E. coli host derived from the BL21 strain. For the EGFR assays, wild-type EGFR, or mutant EGFR (T790M, L858R) were utilized. The EGFR constructs span amino acids R669 to V1011 of the EGFR protein. E. coli were grown to log-phase and infected with T7 phage and incubated with shaking at 32° C. until lysis. The lysates were centrifuged and filtered to remove cell debris. The remaining kinases were produced in HEK-293 cells and subsequently tagged with DNA for qPCR detection. Streptavidin-coated magnetic beads were treated with biotinylated small molecule ligands for 30 minutes at room temperature to generate affinity resins for kinase assays. The liganded beads were blocked with excess biotin and washed with blocking buffer (SeaBlock (Pierce), 1% BSA, 0.05% Tween 20, 1 mM DTT) to remove unbound ligand and to reduce non-specific binding. Binding reactions were assembled by combining kinases, liganded affinity beads, and test compounds in 1× binding buffer (20% SeaBlock, 0.17×PBS, 0.05% Tween 20, 6 mM DTT). Test compounds were prepared as 111× stocks in 100% DMSO. Kds were determined using an 11-point 3-fold compound dilution series with three DMSO control points. All compounds for Kd measurements are distributed by acoustic transfer (non-contact dispensing) in 100% DMSO. The compounds were then diluted directly into the assays such that the final concentration of DMSO was 0.9%. All reactions performed in polypropylene 384-well plate. Each was a final volume of 0.02 ml. The assay plates were incubated at room temperature with shaking for 1 hour and the affinity beads were washed with wash buffer (1×PBS, 0.05% Tween 20). The beads were then re-suspended in elution buffer (1×PBS, 0.05% Tween 20, 0.5 μM nonbiotinylated affinity ligand) and incubated at room temperature with shaking for 30 minutes. The kinase concentration in the eluates was measured by qPCR.

T1 sequence (P00533 669-1011 T790M/L858R): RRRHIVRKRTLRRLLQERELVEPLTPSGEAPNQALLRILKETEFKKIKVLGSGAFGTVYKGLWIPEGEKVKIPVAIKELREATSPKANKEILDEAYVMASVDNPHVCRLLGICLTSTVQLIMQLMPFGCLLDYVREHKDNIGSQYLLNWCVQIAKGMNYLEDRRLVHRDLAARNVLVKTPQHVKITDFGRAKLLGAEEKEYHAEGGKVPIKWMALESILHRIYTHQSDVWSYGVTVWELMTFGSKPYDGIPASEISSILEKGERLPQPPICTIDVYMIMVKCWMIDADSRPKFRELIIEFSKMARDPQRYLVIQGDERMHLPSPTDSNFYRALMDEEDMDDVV

SMILES: C=CC(=O)N1C[C@H](COc2nc(Nc3cnn(CCCCCNC(=O)CN4CCN5CCN6CCN(CC4)CC(=O)[O][Lu]([O]C(=O)C5)[O]C(=O)C6)c3)nc3[nH]cc(Cl)c23)[C@@H](OC)C1 [Compound 007-Lu, N-[5-[4-[[5-chloro-4-[[(3R,4R)-4-methoxy-1-prop-2-enoyl-pyrrolidin-3-yl]methoxy]-7H-pyrrolo[2,3-d]pyrimidin-2-yl]amino]pyrazol-1-yl]pentyl]-2-(3,16,19-trioxo-2,17,18-trioxa-5,8,11,14-tetraza-1λ3-lutetatricyclo[9.6.3.25,14]docosan-8-yl) acetamide]
- Binding Affinity ratio of WT/DM: C (100 < C ≤ 1000)

SMILES: C=CC(=O)N[C@@H]1CN(c2nc(Nc3cn(CCCCCNC(=O)CN4CCN(CC(=O)O)CCN(CC(=O)O)CCN(CC(=O)O)CC4)nc3OC)c3ncn(C)c3n2)C[C@H]1F [Compound 002, 2-[4,7-bis(carboxymethyl)-10-[2-[5-[4-[[2-[(3R,4R)-3-fluoro-4-(prop-2-enoylamino)pyrrolidin-1-yl]-9-methyl-purin-6-yl]amino]-3-methoxy-pyrazol-1-yl]pentylamino]-2-oxo-ethyl]-1,4,7,10-tetrazacyclododec-1-yl]acetic acid]
- pKd (EGFR construct R669 to V1011, 11-point 3-fold dilution series, 1 hour at room temperature): > 9.00
- Binding Affinity ratio of WT/DM: A (4 < A ≤ 25)

SMILES: C=CC(=O)N[C@@H]1CN(c2nc(Nc3cn(CCCCCNC(=O)CN4CCN5CCN6CCN(CC4)CC(=O)[O][Lu]([O]C(=O)C5)[O]C(=O)C6)nc3OC)c3ncn(C(C)(C)C)c3n2)C[C@H]1F [Compound 004-Lu]
- Binding Affinity ratio of WT/DM: B (25 < B ≤ 100)

SMILES: C=CC(=O)N[C@@H]1CN(c2nc(Nc3cn(CCCNC(=O)CN4CCN5CCN6CCN(CC4)CC(=O)[O][Lu]([O]C(=O)C5)[O]C(=O)C6)nc3OC)c3ncn(C)c3n2)C[C@H]1F [Compound 001-Lu]
- Binding Affinity ratio of WT/DM: A (4 < A ≤ 25)

SMILES: C=CC(=O)N[C@@H]1CN(c2nc(Nc3cn(CCCCCNC(=O)CN4CCN5CCN6CCN(CC4)CC(=O)[O][Lu]([O]C(=O)C5)[O]C(=O)C6)nc3CC)c3ncn(C(C)(C)C)c3n2)C[C@H]1F [Compound 005-Lu]
- Binding Affinity ratio of WT/DM: C (100 < C ≤ 1000)
